From patent publication US11311598B2, “Peptides and analogs for use in the treatment of oral mucositis” (Soligenix, Inc., priority 2013, dated 2022)
“Also recorded” adds a separate entry of the source. Where no end group is shown, it is not given here.

Columns and labels:
[1] = system: CNS receptors and ion channels; test: battery of CNS receptors and ion channels in vitro; type: binding
Protocol: No effects of RIVPA (SEQ ID NO. 5) have been observed on the central nervous system (CNS) in any study at any dose level and little or no radiolabelled RIVPA (SEQ ID NO. 5) was found in the mouse CNS at dose levels of either 20 or 90 mg/kg.

CYP450 enzymes = test: processing by or inhibition of CYP450 enzymes; type: in vitro ADME
mouse tongue epithelium = test: prevention of radiation-induced mucositis (25 Gy to the mouse snout); type: in vivo; settings: 25 Gy to mouse snout Day 0; 5 doses of 25 mg/kg IV every second day
Protocol: RIVPA (SEQ ID NO. 5) and other IDRs modulate the innate defense response to tissue injury, reducing the severity of damage caused by the inflammatory cascade and enhancing resolution of disease. As described above, IDRs can mitigate the response to radiation damage in an oral mucositis model (FIG. 1, FIG. 2). […] Progressive thinning of the mouse tongue was assessed on Days 0, 2, 4, 6, 8, and 10 by histopathological analysis of the number of basal and suprabasal apoptotic, mitotic and total epithelial cells per unit area and per unit length. It is noted that the dose of radiation used (25 Gy) was chosen such that progressive thinning of the tongue epithelium was observed but no overt mucositis occurred.

male C3H/HeN mice = test: chemotherapy-induced oral and gastrointestinal mucositis in the mouse; type: in vivo
Protocol: In each study, 5-fluorouracil (60 mg/kg IP) was administered to male C3H/HeN mice on Days −4 and −2. […] […] Body weights were also measured daily and colitis severity was determined by video endoscopy on Days 4 and 7. In the first study, RIVPA (SEQ ID NO. 5) (25 mg/kg IV) was administered either once on Day −4 immediately prior to chemotherapy, twice on Days −4 and −2 immediately after chemotherapy or 3 times on Days −1, 2 and 5. […] In the second study, RIVPA (SEQ ID NO. 5) (25 mg/kg IV) was administered on either Days −1, 2 and 5, Days −1, 1 and 3 or Days 0, 2, and 4. […] In the third study, RIVPA (SEQ ID NO. 5) (25 or 5 mg/kg IV, as indicated) was administered either on Days −1, 2 and 5 or on Days 1 and 3. […] Statistical significance was assessed for oral mucositis using a chi-square analysis and for body weight area under the curve (AUC) with an ANOVA on ranks. […] Treatment with R(tBg)V1KR(tBg)V2 (SEQ ID NO. 91) and RIV(mp2)A-NH2 (SEQ ID NO. 92) was administered on Days −1 and 2 at a dose of 25 mg/kg IV.

[2] = mouse, 5-fluorouracil chemotherapy model, RIVPA IV

## RIVPA-NH2 [RIVPA (SEQ ID NO. 5), RIVPA]
[1]
  interaction with CNS receptors and ion channels: No interaction was detected
CYP450 enzymes
  inhibition of CYP450 enzymes: lack
  processing by CYP450 enzymes: lack
Mouse tongue epithelium
  disease progression (progressive thinning of the mouse tongue): did not have any significant impact
Male C3H/HeN mice; first study, 25 mg/kg IV 3 times on Days −1, 2 and 5
  treatment effectiveness on mucositis: most effective
Male C3H/HeN mice; mouse, 5-fluorouracil 60 mg/kg IP Days −4 and −2, chemical burn of tongue Day 0, RIVPA IV
  duration of severe oral mucositis: reduces; also recorded: statistically significant reduction
Male C3H/HeN mice; [2]
  body weight loss: reduces
  severity of colitis (video endoscopy): reduces; also recorded: trend towards reduced colitis
Male C3H/HeN mice; third study, 5 vs 25 mg/kg IV
  efficacy at decreased dose levels: decreased efficacy
Male C3H/HeN mice; third study, dosing every third day (Days −1, 2 and 5)
  treatment effectiveness on mucositis: most effective
